Counter-ions that a name gives are not always drawn.
Legend:
[1] = Ring shear test: flow function coefficient and cohesion (Jenike-Johanson RST-XS, ASTM D6773-16); assay type: physicochemical; details: neat particles; for average cohesion: four lots (FIG. 3); for average FFc (flow function coefficient): four lots, pre-load 3 kPa (FIG. 2)
From the text: “Flow function”, “flow function coefficient”, or FFc is a parameter commonly used to rank the flowability of a particulate sample, which could be a sample of neat API particles or a blend containing API particles plus additives. • Powder flowability is ranked as follows: • FFc<1 not flowing • 1<FFc<2 very cohesive • 2<FFc<4 Cohesive • 4<FFc<10 easy flowing • FFc>10 free flowing The measurement of FFc and Cohesion outlined below follows the procedures described in ASTM D6773-16. […] To test FFc and Cohesion, a particulate sample is added to a commercially available ring shear testing device, such as a Jenike-Johanson RST-XS ring shear tester. Such testing is familiar to the person of ordinary skill in the art. In general, the powder is loaded into an annular trough and a consolidated powder bed is formed. A normal stress (σp) is applied to the consolidated powder bed and the pre-shear stress (ζp) is measured. The normal stress is applied as a vertical load through an annular lid. The shear cell rotates relative to the lid and the torque necessary for shearing is measured. Repeat measurements with a series of values of normal stress are applied. When the measured shear stress values (Y-axis) are plotted as function of applied normal stress values (X-axis), the linear relation between them is called the yield locus. The yield locus line can be used to determine a unique relationship between normal stress and shear stress; this is known as a Mohr circle. The yield locus line represents a tangential line of all Mohr circles. The outer larger radius circle corresponds to pre-shear conditions (σp, ζp) and defines the Major Principal Stress, MPS (σ1). The smaller radius circle defines the Unconfined Yield Stress, UYS (σc). Flow function coefficient or FFc is the ratio of Major Principle Stress (MPS) to the Unconfined Yield Strength (UYS): Cohesion is the propensity for particles within a sample to self-associate or “stick together”. The ring shear tester measures cohesion at the same time that it measure FFc. The intercept of yield locus line at zero normal stress (i.e., where the extrapolation of the yield locus line intercepts the Y axis) is known as powder cohesion, and is expressed in Pascal (Pa) units. Lower cohesion is associated with better powder flowability. Further, cohesion predicts how particulate samples will behave when stored, for example when stored in a silo. […] The flow function coefficient (FFc) was measured as described above to quantify the flow properties of neat diroximel fumarate particles of Example 1 (dry milled) and Example 2 (wet milled and ripened). […]

[2] = Particle size distribution (volume diameter D10/D50/D90, span); assay type: physicochemical; details: for D10 (values across lots) / span (values across lots): range over the lots of the example; for Final PSD after ripening D10 / Final PSD after ripening D50 / Final PSD after ripening D90: after ripening at 40, 43 or 48 °C
Description: Particle size is expressed in terms of volume diameter, which is used to provide a dimensional description of particles which are non-spherical. “Volume diameter” refers to the diameter of a sphere with equal volume of the non-spherical particle. Particle size can be measured according to methods well known in the art, including a laser diffraction technique that correlates light scattering to particle volume on which effective length or effective diameter is calculated.
Particle size distribution is expressed in terms of D50, D10, D90 and span. “Span” is a measure for particle size distribution. It is calculated according to the following equation: […]
“D50”, also known as the median diameter, corresponds to the value under which 50% of the particles has a lower volume diameter. “D90” corresponds to the value under which 90% of the particles has a lower volume diameter. “D10” corresponds to the value under which 10% of the particles has a lower volume diameter.

[3] = final product, wet milled and ripened in IPAC/IPA, 43 °C
[4] = dry milled API, representative commercial lot
[5] = dry milled API, (D90 − D10)/D50
[6] = final PSD after ripening, (D90 − D10)/D50

SMILES: COC(=O)/C=C/C(=O)OCCN1C(=O)CCC1=O [Example 1, diroximel fumarate]
- average cohesion [1]: 270 Pa
- average FFc (flow function coefficient) [1]: less than 4
- D10 (values across lots) [2]: 16-18 μm
- span (values across lots) [2]: 2.9-3.4

SMILES: COC(=O)/C=C/C(=O)OCCN1C(=O)CCC1=O [Example 2, diroximel fumarate]
- average cohesion [1]: 219 Pa
- average FFc (flow function coefficient) [1]: about 4
- D10 (values across lots) [2]: 37.2-41.0 μm
- span (values across lots) [2]: 1.4-1.7

SMILES: COC(=O)/C=C/C(=O)OCCN1C(=O)CCC1=O [Example 6, diroximel fumarate]
- median particle size D50, in-process after wet milling ([2]; IPAC/IPA slurry, after 23 volume turnovers, before ripening): 43 microns
- Span ([2]; final product, wet milled and ripened in IPAC/IPA): 1.4
- D10 [2, 3]: 40 μm
- D50 [2, 3]: 92 μm
- D90 [2, 3]: 173 μm

SMILES: COC(=O)/C=C/C(=O)OCCN1C(=O)CCC1=O [compound 1, diroximel fumarate]
- Final PSD after ripening D10 [2]: 37.2 μm
- Final PSD after ripening D50 [2]: 89.3 μm
- Final PSD after ripening D90 [2]: 162.5 μm
- PSD after wet milling D10 ([2]; before ripening): 11.6 μm
- PSD after wet milling D50 ([2]; before ripening): 53.0 μm
- PSD after wet milling D90 ([2]; before ripening): 155 μm
- D10 [2, 4]: 17 μm
- D50 [2, 4]: 96 μm
- D90 [2, 4]: 347 μm
- Span [2, 5]: 3.4
- Span [2, 6]: 1.4

SMILES: COC(=O)/C=C/C(=O)OCCN1C(=O)CCC1=O [compound 2, diroximel fumarate]
- Final PSD after ripening D10 [2]: 40.7 μm
- Final PSD after ripening D50 [2]: 96.1 μm
- Final PSD after ripening D90 [2]: 204.5 μm
- PSD after wet milling D10 ([2]; before ripening): 12.4 μm
- PSD after wet milling D50 ([2]; before ripening): 66.3 μm
- PSD after wet milling D90 ([2]; before ripening): 179 μm
- D10 [2, 4]: 17 μm
- D50 [2, 4]: 106 μm
- D90 [2, 4]: 347 μm
- Span [2, 5]: 3.1
- Span [2, 6]: 1.7

SMILES: COC(=O)/C=C/C(=O)OCCN1C(=O)CCC1=O [compound 3, diroximel fumarate]
- Final PSD after ripening D10 [2]: 41.0 μm
- Final PSD after ripening D50 [2]: 111.9 μm
- Final PSD after ripening D90 [2]: 222.9 μm
- PSD after wet milling D10 ([2]; before ripening): 9.15 μm
- PSD after wet milling D50 ([2]; before ripening): 35.2 μm
- PSD after wet milling D90 ([2]; before ripening): 116 μm
- D10 [2, 4]: 18 μm
- D50 [2, 4]: 101 μm
- D90 [2, 4]: 307 μm
- Span [2, 5]: 2.9
- Span [2, 6]: 1.6

SMILES: COC(=O)/C=C/C(=O)OCCN1C(=O)CCC1=O [compound 4, diroximel fumarate]
- D10 [2, 4]: 16 μm
- D50 [2, 4]: 95 μm
- D90 [2, 4]: 302 μm
- Span [2, 5]: 3.0
